According to US9636324B2, “Use of 15-benzylidence-14-deoxy-11, 12 -dehyroandrographolide derivative in manufacture of medicaments for protecting liver and anti-hepatitis C virus” (Zhengzhou University, priority 2012, dated 2017):

Experiments:
[1] = tested on: mice with carbon tetrachloride induced liver damage; assay: Carbon tetrachloride induced chemical liver damage model in mice; assay type: in vivo, Kunming mice
[2] = tested on: MDBK (NBL-1) cells; assay: MTT assay for cytotoxicity; assay type: cell-based, bovine; settings: 0-7.5 μmol/L, 48 h
Protocol: The drug-containing medium is added and further incubated for 48 h. MTT is added (5 mg/mL) at 20 μL/well and cultured for 4 h, the supernatant is discarded and 150 μL DMSO is added, then the plate is shaken for 10 minutes and the absorbance is determined using a microplate reader using the wavelength 570 nm and a reference wavelength 450 nm. The cell survival rate is calculated after treatment of compounds: cell survival rate (%)=drug group A value/cell control group A value×100%, and the results are shown in FIG. 10. Cell proliferation inhibition rate (%)=100%−survival rate (%), half maximal (50%) toxic concentration (TC50) is calculated according to Reed-Muench method.

[3] = tested on: mice with ConA induced liver damage; assay: ConA induced immunological liver damage model in mice; assay type: in vivo, Kunming mice
[4] = dosage groups not distinguished (0.66 and 0.88 mmol/kg), P<0.01
[5] = dosage groups not distinguished, P<0.01
[6] = high dosage 0.88 mmol/kg vs AD 0.88 mmol/kg, P<0.05
[7] = high dosage 0.88 mmol/kg, P<0.05
[8] = low dosage 0.66 mmol/kg vs AD 0.88 mmol/kg, P<0.05
[9] = low dosage (printed 0.66 mol/kg), P<0.01

For `C=C1CCC2C(C)(CO)C(O)CCC2(C)C1C=CC1=CC(=Cc2ccc(Cl)cc2)OC1=O` (stereo not drawn) [Compound A], the “ALT activity in serum vs model group” value [1, 4] was “notably suppress the increase”, the “AST activity in serum vs model group” value [1, 4] was “notably suppress the increase” and the “MDA level in liver homogenate vs model group” value [1, 5] was “effectively reduce”. The “PGE2 level in liver homogenate vs model group” value [1, 5] was “effectively reduce”, the “magnitude of decrease in ALT activity compared to AD group” value [1, 6] was “significantly better” and the “magnitude of decrease in AST activity compared to AD group” value [1, 6] was “significantly better”. The “PGE2 content compared to AD group” value [1, 7] was “notably lower”, the “ability to reduce lipid peroxide level in liver homogenate compared to AD group” value [1, 7] was “stronger ability to reduce the lipid peroxide level” and the “magnitude of decrease in ALT activity compared to AD group” value [1, 8] was “significantly better”. For the same compound, the “magnitude of decrease in AST activity compared to AD group” value [1, 8] was “significantly better”, the “ability to reduce lipid peroxide level in liver homogenate compared to AD group” value ([1]; low dosage 0.66 mmol/kg, P<0.05) was “stronger ability to reduce the lipid peroxide level” and the “protective effect against liver damage induced by carbon tetrachloride (summary)” value ([1]; mice, intragastric, 3 days) was “protective effect”. For the same compound, the “cytotoxicity to MDBK cells” value [2] was “do not show obvious cytotoxcity”, the “liver histopathologic section (HE staining)” value ([3]; HE stain, 200x, FIG. 5) was “no observation of extravasated blood in sinus hepaticus, liver cells show slightly granular degeneration and vacuolar degeneration, and no spotted and focal necrosis region is observed” and the “serum enzyme level relative to normal level” value ([3]; high dosage 0.88 mmol/kg) was “essentially decreased to normal level”. For the same compound, the “enzyme (ALT, AST) lowering effect compared to AD group” value [3, 6] was “better enzyme lowering effect”, the “PGE2 content in liver homogenate vs model group” value ([3]; high dosage 0.88 mmol/kg, P<0.01) was “notably reduce PGE2 content” and the “PGE2 content in liver homogenate vs model group” value ([3]; low dosage 0.66 mmol/kg, P<0.05 (A), P<0.01 (D)) was “notably reduce PGE2 content”. For the same compound, the “MDA content in liver homogenate vs model group” value [3, 9] was “more obvious effect”, the “ability against liver lipid peroxidation compared with AD group” value [3, 9] was “stronger resistant ability against liver lipid peroxidation” and the “protective effect against liver damage induced by ConA (summary)” value ([3]; mice, intragastric, 3 days) was “notably protective effect”.
